Assay results from patent US10093653B2, “Vitamin D receptor-coregulator inhibitors” (UWM Research Foundation, Inc., priority 2011, dated 2018).
Converted amounts (≈) assume the structure as drawn.

What was measured:
[1] = 12 h, pH 7.4
[2] = PAMPA
[3] = test system: HEK293T cells; assay: Toxicity by Cell-Titer Glo after the FRET assay; assay type: cell-based; details: for Toxicity (%): Conc. 62.5 μM
[4] = test system: CYP24A1; assay: CYP24A1 expression levels; assay type: cell-based; details: compound in presence and absence of 1,25-(OH)2D3
[5] = test system: VDR in SKOV-3 cells; assay: VDR expression, western blotting of whole cell lysate; assay type: cell-based; details: SKOV-3, 24 hours; 31b 25 and 50 uM, 32b 50 uM
Protocol: Expression of VDR was analyzed by western blotting of whole cell lysate using monoclonal antibody against VDR (Neomarker, Calif. cat no-RT-200PO).

[6] = test system: SKOV-3; assay: Cytotoxicity, MTS assay; assay type: cell-based; details: SKOV-3, within 48 hours
[7] = test system: OVCAR-8; assay: Cytotoxicity, MTS assay; assay type: cell-based; details: OVCAR-8, within 48 hours
[8] = test system: ECC-1; assay: Cytotoxicity, MTS assay; assay type: cell-based; details: ECC-1 endometrial cancer cell-line, within 48 hours
[9] = test system: SKOV-3 cells; assay: Western blots for phospho-p38 MAPkinase and phospho SAPK/JNK; assay type: cell-based; details: SKOV-3, 25 uM, within 24 hours
Excerpt: Vitamin-d/VDR signaling protects the cancer cells from reactive oxygen species (ROS) induced cellular damages.

[10] = test system: TRPV6 in DU145 cells; assay: TRPV6 expression, semi-quantitative RT-PCR; assay type: cell-based; details: 20 nM
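Wherever Permeability Log(Pe) is given: passive permeability measured by parallel artificial membrane permeability assay, each experiment run in triplicate.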
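Wherever Permeability values (log Pe) of standards is given: passive permeability measured by parallel artificial membrane permeability assay, each experiment run in triplicate.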

Solubility [1] | Permeability Log(Pe) [2] | SMILES | other results
11.8 µM (≈ 4.29 µg/mL) | −6.89 cm/s | Cc1[nH]c2ccccc2c1C(Sc1ccccc1)c1ccccc1Cl (stereo not drawn) [Compound 32c, 3-((2-chlorophenyl)(phenylthio)methyl)-2-methyl-1H-indole] | 
84.2 µM (≈ 31.7 µg/mL) | −6.30 cm/s | COc1ccc(NC(c2ccccc2Cl)c2c(C)[nH]c3ccccc23)cc1 (stereo not drawn) [Compound 31c, N-((2-chlorophenyl)(2-methyl-1H-indol-3-yl)methyl)-4-methoxyaniline] | 
4.9 µM (≈ 1.92 µg/mL) | −7.60 cm/s | Cc1[nH]c2ccccc2c1C(Nc1ccc([N+](=O)[O-])cc1)c1ccccc1Cl (stereo not drawn) [Compound 31f, N-((2-chlorophenyl)(2-methyl-1H-indol-3-yl)methyl)-4-nitroaniline] | 
31.6 µM (≈ 11 µg/mL) | −6.41 cm/s | Cc1[nH]c2ccccc2c1C(Nc1ccccc1)c1ccccc1Cl (stereo not drawn) [Compound 31a, N-((2-chlorophenyl)(2-methyl-1H-indol-3-yl)methyl)aniline] | 
52.3 µM (≈ 17.4 µg/mL) | −6.51 cm/s | Clc1ccccc1C(Nc1ccccc1)c1c[nH]c2ccccc12 (stereo not drawn) [Compound 32b, N-((2-chlorophenyl)(1H-indol-3-yl)methyl)aniline] | Expression of VDR [5]: downregulation of VDR; Cytotoxicity, cell viability [6]: did not show any cytotoxicity; Cytotoxicity, cell viability [7]: did not show any cytotoxicity; Cytotoxicity, cell viability [8]: did not show any cytotoxicity; Activation of SAPK/JNK [9]: did not cause the similar activation; Activation of p38 MAPkinase [9]: did not cause the similar activation
35.9 µM (≈ 13 µg/mL) | −6.45 cm/s | Cc1ccc(NC(c2ccccc2Cl)c2c(C)[nH]c3ccccc23)cc1 (stereo not drawn) [Compound 31d, N-((2-chlorophenyl)(2-methyl-1H-indol-3-yl)methyl)-4-methylaniline] | 
59.7 µM (≈ 22.5 µg/mL) | −6.22 cm/s | COc1ccccc1NC(c1ccccc1Cl)c1c(C)[nH]c2ccccc12 (stereo not drawn) [Compound 31h, N-((2-chlorophenyl)(2-methyl-1H-indol-3-yl)methyl)-2-methoxyaniline] | 
15.3 µM (≈ 5.31 µg/mL) | −6.58 cm/s | Cn1cc(C(Nc2ccccc2)c2ccccc2Cl)c2ccccc21 (stereo not drawn) [Compound 32a, N-((2-chlorophenyl)(1-methyl-1H-indol-3-yl)methyl)aniline] | 
21.0 µM (≈ 8.19 µg/mL) | −7.28 cm/s | Cc1[nH]c2ccccc2c1C(Nc1ccc(N(C)C)cc1)c1ccccc1Cl (stereo not drawn) [Compound 31e, N^1-((2-chlorophenyl)(2-methyl-1H-indol-3-yl)methyl)-N^4,N^4-dimethylbenzene-1,4-diamine] | 

Second part, the molecule before the results:

SMILES | Solubility [1] | Permeability Log(Pe) [2] | other results
Cc1[nH]c2ccccc2c1C(C)Nc1ccccc1 (stereo not drawn) [Compound 30g, N-(1-(2-methyl-1H-indol-3-yl)ethyl)aniline] | 189.0 µM (≈ 47.3 µg/mL) | −6.40 cm/s | 
Cc1ccc(C(Nc2ccccc2)c2c(C)[nH]c3ccccc23)cc1 (stereo not drawn) [Compound 30d, N-((2-methyl-1H-indol-3-yl)(p-tolyl)methyl)aniline] | 175.1 µM (≈ 57.2 µg/mL) | −6.34 cm/s | 
COc1ccc(C(Nc2ccccc2)c2c(C)[nH]c3ccccc23)cc1 (stereo not drawn) [Compound 30c, N-((4-methoxyphenyl)(2-methyl-1H-indol-3-yl)methyl)aniline] | 237.5 µM (≈ 81.3 µg/mL) | −6.10 cm/s | 
COc1cccc(C(Nc2ccccn2)c2c(C)[nH]c3ccccc23)c1 (stereo not drawn) [Compound 13] |  | −6.12 cm/s | Toxicity (%) [3]: 60%
Cc1[nH]c2ccccc2c1C(Nc1ccccn1)c1cccc(Cl)c1 (stereo not drawn) [Compound 18] |  | −6.01 cm/s | Toxicity (%) [3]: 100%
Cc1[nH]c2ccccc2c1C(Nc1ccccn1)c1cccc(F)c1 (stereo not drawn) [Compound 19] |  | −5.99 cm/s | 
c1ccc(NC(c2ccccc2)c2c[nH]c3ccccc23)cc1 (stereo not drawn) [Compound 1, N-((1H-indol-3-yl)(phenyl)methyl)aniline] |  |  | Modulation of CYP24A1 expression [4]: no modulation of CYP24A1
Cc1[nH]c2ccccc2c1C(Nc1ccccc1)c1ccccc1 (stereo not drawn) [Compound 30a, N-((2-methyl-1H-indol-3-yl)(phenyl)methyl)aniline] | 252.9 µM (≈ 79 µg/mL) | −6.00 cm/s | 
Cc1[nH]c2ccccc2c1C(Nc1ccccc1)c1ccc2ccccc2c1 (stereo not drawn) [Compound 30h, N-((2-methyl-1H-indol-3-yl)(naphthalen-2-yl)methyl)aniline] | 67.3 µM (≈ 24.4 µg/mL) | −6.30 cm/s | 
Cc1[nH]c2ccccc2c1C(Nc1ccccc1)c1ccc(N(C)C)cc1 (stereo not drawn) [Compound 30e, N,N-dimethyl-4-((2-methyl-1H-indol-3-yl)(phenylamino)methyl)aniline] | 157.7 µM (≈ 56.1 µg/mL) | −6.88 cm/s | 
Cc1[nH]c2ccccc2c1C(Nc1ccccn1)c1cccc(Br)c1 (stereo not drawn) [Compound 14] |  | −6.11 cm/s | Toxicity (%) [3]: 100%
Cc1ccc(C(Nc2ccccn2)c2c(C)[nH]c3ccccc23)cc1 (stereo not drawn) [Compound 12] |  | −6.10 cm/s | Toxicity (%) [3]: 90%
Cc1[nH]c2ccccc2c1C(Nc1ccccn1)c1ccc(F)cc1 (stereo not drawn) [Compound 16] |  | −6.05 cm/s | Toxicity (%) [3]: 100%
NC(=O)N1c2ccccc2C=Cc2ccccc21 [carbamazepine, reference compound] |  |  | Permeability values (log Pe) of standards [2]: −6.81±0.0011 cm/s
Cc1[nH]c2ccccc2c1C(Nc1ccccn1)c1ccc(C(C)C)cc1 (stereo not drawn) [Compound 17] |  | −6.12 cm/s | Toxicity LD50 (given instead of percentages) ([3]; footnote b, highly active compounds): 18.0^b μM
COc1ccc(C(Nc2ccccn2)c2c(C)[nH]c3ccccc23)cc1 (stereo not drawn) [Compound 11] |  | −6.25 cm/s | Toxicity (%) [3]: 100%
Cc1[nH]c2ccccc2c1C(Nc1ccccn1)c1ccc(Br)cc1 (stereo not drawn) [Compound 15] |  | −6.01 cm/s | 
Cc1[nH]c2ccccc2c1C(Nc1ccccc1)c1ccc(Cl)cc1 (stereo not drawn) [Compound 30b, N-((4-chlorophenyl)(2-methyl-1H-indol-3-yl)methyl)aniline] | 93.9 µM (≈ 32.6 µg/mL) | −6.03 cm/s | 
CNC(=C[N+](=O)[O-])NCCSCc1ccc(CN(C)C)o1 [Ranitidine, reference compound] |  |  | Permeability values (log Pe) of standards [2]: −8.02±0.074 cm/s
Cc1[nH]c2ccccc2c1C(Nc1ccccc1)c1ccc([N+](=O)[O-])cc1 (stereo not drawn) [Compound 30f, N-((2-methyl-1H-indol-3-yl)(4-nitrophenyl)methyl)aniline] | 117.6 µM (≈ 42 µg/mL) | −6.08 cm/s | 
C=C1/C(=C\C=C2/CCC[C@]3(C)[C@@H]([C@H](C)CCCC(C)(C)O)CC[C@@H]23)C[C@@H](O)C[C@@H]1O [1,25-(OH)2D3, 1,25-dihydroxyvitamin D3, reference compound] |  |  | TRPV6 expression with VDR ligand [10]: up-regulated
